Entries after “also recorded” stand apart in the source; their conditions may differ.
Tests used:
2-deoxycytidine (dCyt) = experiment: reaction of NNA with dCyt in vitro, adduct formation
From the text: NNA (1-(N-methyl-N-nitrosamino)-1-(3-pyridinyl)-4-butanal) is an important member of the carcinogenic/mutagenic tobacco-specific nitrosamines (TSNAs) and an unique constituent found in the most recently identified health risk called thirdhand smoke (THS). We studied the reactions of NNA with 2-deoxyguanosine (dGuo) and 2-deoxycytidine (dCyt) in vitro with regard to its ability to form stable base adducts, which have not been reported in literature at all. Herein we have identified and characterize potential specific THS biomarkers. We also describe experimental evidence for detrimental effects from exposure to THS, which could be useful for framing and enforcing new policies against indoor smoking.
Herein we describe the first evidence that reaction of NNA with dCyt in vitro results in formation of stable base adducts too, which have not been hereto for been reported in literature.
Using the alkaline Comet assay, we examined the potential of NNA to cause DNA strand breaks in cultured human hepatocellular carcinoma (HepG2) cells. Moreover, the ability of NNA to form DNA adducts with dGuo and dCyt in vitro was investigated and characterized using HPLC-UV, electrospray ionization mass spectrometry (ESI-MS/MS) and NMR. […]

2-deoxyguanosine (dGuo) = experiment: reaction of NNA with dGuo in vitro, DNA adduct formation; details: HPLC-UV, ESI-MS/MS, NMR
From the text: (§1) We recently examined the genotoxicity of NNA in human HepG2 cells as well as its ability to modify both 2-deoxyguanosine (dGuo) and 2-deoxycytodine (dCyt) in vitro. […] In the reaction of NNA with dGuo, several adducts were identified with HPLC-UV spectrum, ESI-MS/MS and NMR. These include 8-oxo-2′-deoxyguanosine (8-oxo-dG), 0^6-methyl-dG, and N^2-methyl-dG. NNA also forms a bulky dG adduct with m/z 455.17 for (M+H)^+ in mass spectrum, which is due to the condensation of NNA and dG with the elimination of H2O and two hydrogen molecules. In addition, NNA causes novel DNA sugar damage, forming […]. […] In addition, the NNA-specific DNA adducts identified can be used as specific biomarkers of THS exposure.
We discovered that NNA reacts with dGuo (“dG”) and dCyt (“dC”) to form various DNA adducts. […] The chemical structure of this adduct has been proposed and validated using various NMR experiments. Because of its specific structural characteristic, this adduct can serve as a DNA damage “signature” by NNA, thus a potential biomarker for monitoring exposure to thirdhand smoke.
(§2) Using the alkaline Comet assay, we examined the potential of NNA to cause DNA strand breaks in cultured human hepatocellular carcinoma (HepG2) cells. […]

HepG2 cells = experiment: alkaline Comet assay, DNA strand breaks; format: cell-based; details: human HepG2 cells, exposure 24 h, 37° C.
From the text: as §1
FIGS. 3A and 3B: Genotoxic effect of NNA in human HepG2 cells as measured by the Comet assay. HepG2 cells were exposed to varying doses of NNA dissolved in DMEM medium with/without 10% FBS for 24 h. […] (A) Effect of acute THS and THS+HONO. HepG2 cells were exposed to samples at 37° C. for 24 h. The extent of DNA damage was analyzed by % DNA in tail to total DNA from 90 cells. (B) HepG2 cells were exposed to chronic THS at varying dilutions under identical conditions as above.
as §2

Compound | formation of adducts with dC (2-deoxycytidine (dCyt)) | formation of DNA adducts with dGuo (2-deoxyguanosine (dGuo)) | DNA damage / DNA strand breaks (Comet assay) (HepG2 cells)
CN(N=O)C(CCC=O)c1cccnc1 (stereo not shown) [NNA, 1-(N-methyl-N-nitrosamino)-1-(3-pyridinyl)-4-butanal] | reacts with dC to form multiple adducts | forms multiple DNA adducts in vitro | concentration-dependent DNA strand breaks; also recorded: induces DNA damage at low nanomolar concentrations; also recorded: results in DNA strand breaks in exposed cells; also recorded: causes significant DNA damage at nM concentrations
CN(CCCC(=O)c1cccnc1)N=O [NNK, 4-(methylnitrosamino)-1-(3-pyridyl)-1-butanone, reference compound] |  |  | induces DNA damage at low nanomolar concentrations; also recorded: causes significant DNA damage at nM concentrations

Source: patent publication US10538549B2, “NNA-DNA adducts as biomarkers for detecting exposure to thirdhand smoke” (The Regents of the University of California, priority 2014, dated 2020)
